Where “and” joins values, the source holds several entries; their conditions need not be identical. Equal entries are not always repeated. Inconclusive results and toxic doses are left out. How the source made its calls: active means survival T/C of 150% or more; inactive means T/C below 125% in these data.
Tested on: P388 leukemia ip, CD2F1 mice, survival T/C
Test: NCI In Vivo Anticancer Drug Screen. Data for tumor model P388 Leukemia (intraperitoneal) in CD2F1 (CDF1) mice
Settings: endpoint: median survival time, higher = longer survival
Procedure, shortened: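 Mice carrying the transplanted tumor received test compound or vehicle. Survival was recorded in each group, and the value is the treated-group measurement divided by that of the vehicle-treated control group.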

[1] = dose: 25.0 mg/kg/injection, schedule: Q01DX005 (ip), vehicle: saline
[2] = dose: 50.0 mg/kg/injection, schedule: Q01DX005 (ip), vehicle: saline
[3] = dose: 100.0 mg/kg/injection, schedule: Q01DX005 (ip), vehicle: saline
[4] = dose: 200.0 mg/kg/injection, schedule: Q01DX005 (ip), vehicle: saline
[5] = dose: 60.0 mg/kg/injection, schedule: Q01DX005 (ip), vehicle: saline with Tween-80
[6] = dose: 120.0 mg/kg/injection, schedule: Q01DX005 (ip), vehicle: saline with Tween-80
[7] = dose: 240.0 mg/kg/injection, schedule: Q01DX005 (ip), vehicle: saline with Tween-80
[8] = dose: 50.0 mg/kg/injection, schedule: Q01DX005 (ip), vehicle: Klucel (hydroxypropylcellulose) (HPC)
[9] = dose: 100.0 mg/kg/injection, schedule: Q01DX005 (ip), vehicle: Klucel (hydroxypropylcellulose) (HPC)
[10] = dose: 200.0 mg/kg/injection, schedule: Q01DX005 (ip), vehicle: Klucel (hydroxypropylcellulose) (HPC)
[11] = dose: 50.0 mg/kg/injection, schedule: Q01DX009 (ip), vehicle: saline with Tween-80
[12] = dose: 50.0 mg/kg/injection, schedule: Q01DX009 (ip), vehicle: Klucel (hydroxypropylcellulose) (HPC)
[13] = dose: 100.0 mg/kg/injection, schedule: Q01DX009 (ip), vehicle: Klucel (hydroxypropylcellulose) (HPC)
[14] = dose: 200.0 mg/kg/injection, schedule: Q01DX009 (ip), vehicle: Klucel (hydroxypropylcellulose) (HPC)
[15] = dose: 12.5 mg/kg/injection, schedule: Q01DX009 (ip), vehicle: saline
[16] = dose: 25.0 mg/kg/injection, schedule: Q01DX009 (ip), vehicle: saline
[17] = dose: 50.0 mg/kg/injection, schedule: Q01DX005 (ip), vehicle: saline with Tween-80
[18] = dose: 100.0 mg/kg/injection, schedule: Q04DX002 (ip), vehicle: Klucel (hydroxypropylcellulose) (HPC)
[19] = dose: 100.0 mg/kg/injection, schedule: Q01DX009 (ip), vehicle: saline with Tween-80
[20] = dose: 200.0 mg/kg/injection, schedule: Q01DX009 (ip), vehicle: saline with Tween-80

Measured: T/C

OCC1CC2CCCCN2O1 (stereo not given)
inactive: [1] 102 % of control | [2] 101 % of control | [3] 105 % of control | [4] 106 % of control

O=C(NCCCl)Nc1[nH]c(=O)ncc1Br
inactive: [5] 104 % of control | [6] 102 % of control | [7] 112 % of control

CSc1nc(Cl)c2ncn(C3C=CC(OC(C)=O)CO3)c2n1 (stereo not given)
inactive: [8] 103 % of control | [9] 99 % of control | [10] 109 % of control

Cc1nc2ncnc(Cl)c2[nH]1
inactive: [2] 99 % of control | [3] 105 % of control | [4] 96 % of control

COC(=Nc1ccccc1)SSC(C)C
inactive: dose: 25.0 mg/kg/injection, schedule: Q01DX009 (ip), vehicle: saline with Tween-80 115 % of control | [11] 115 % of control

CCCCCCN1CCS(=O)(=O)CC1
inactive: [12] 91 % of control | [13] 94 % of control | [14] 90 % of control

NC(=O)C(=O)NNC(=O)CCn1[nH]c(=O)c(Cl)c(Cl)c1=O
inactive: [5] 100 % of control | [6] 103 % of control | [7] 98 % of control

CNC(=O)n1cccc(OC)c1=O
inactive: [15] 102 % of control and 107 % of control | [16] 100 % of control and 111 % of control

O=S(=O)(O)O.[O]=[V]
inactive: dose: 6.25 mg/kg/injection, schedule: Q01DX009 (ip), vehicle: saline 90 % of control | [15] 86 % of control | dose: 12.5 mg/kg/injection, schedule: Q04DX003 (ip), vehicle: saline 100 % of control | [16] 90 % of control | dose: 25.0 mg/kg/injection, schedule: Q04DX003 (ip), vehicle: saline 100 % of control

ClC(Cl)=Nc1ccccc1
inactive: dose: 25.0 mg/kg/injection, schedule: Q01DX009 (ip), vehicle: Klucel (hydroxypropylcellulose) (HPC) 103 % of control | [12] 103 % of control | [13] 110 % of control | [14] 93 % of control

CC1(CCBr)C(=O)NC(=O)NC1=O
inactive: [17] 101 % of control | dose: 100.0 mg/kg/injection, schedule: Q01DX005 (ip), vehicle: saline with Tween-80 101 % of control | dose: 200.0 mg/kg/injection, schedule: Q01DX005 (ip), vehicle: saline with Tween-80 105 % of control

NS(=O)(=O)c1cc([N+](=O)[O-])ccc1C(=O)OC1CCCCC1
inactive: [8] 104 % of control | [9] 113 % of control | [10] 92 % of control

COc1ccc2c(c1)CN1C(CCC3c4ccccc4NC31)C2 (stereo not given)
inactive: [5] 99 % of control | [6] 95 % of control | [7] 95 % of control

Nc1noc(N)n1
inactive: [2] 107 % of control | [3] 110 % of control | [4] 124 % of control

CC[N+](C)(CC)C[Si](C)(C)c1ccccc1
inactive: dose: 12.5 mg/kg/injection, schedule: Q01DX005 (ip), vehicle: saline 98 % of control | [1] 100 % of control | [2] 105 % of control and 98 % of control

COc1ccc2cc1Oc1ccc(cc1)CC1c3cc(OC)c(cc3CCN1C)Oc1c(O)c(OC)cc3c1C(C2)N(C)CC3 (stereo not given)
inactive: dose: 3.88 mg/kg/injection, schedule: Q01DX005 (ip), vehicle: Klucel (hydroxypropylcellulose) (HPC) 103 % of control | dose: 7.75 mg/kg/injection, schedule: Q01DX005 (ip), vehicle: Klucel (hydroxypropylcellulose) (HPC) 95 % of control | dose: 15.5 mg/kg/injection, schedule: Q01DX005 (ip), vehicle: Klucel (hydroxypropylcellulose) (HPC) 95 % of control | dose: 31.0 mg/kg/injection, schedule: Q01DX005 (ip), vehicle: Klucel (hydroxypropylcellulose) (HPC) 95 % of control

CCOC(=O)C(Nc1cc([N+](=O)[O-])ccc1C(=O)OC(C)C)(OC(C)C)C(=O)OCC
inactive: [18] 90 % of control | dose: 200.0 mg/kg/injection, schedule: Q04DX002 (ip), vehicle: Klucel (hydroxypropylcellulose) (HPC) 91 % of control | dose: 400.0 mg/kg/injection, schedule: Q04DX002 (ip), vehicle: Klucel (hydroxypropylcellulose) (HPC) 90 % of control

Clc1ccc(-c2nnc(Nc3ccnc4cc(Cl)ccc34)s2)cc1
inactive: dose: 12.5 mg/kg/injection, schedule: Q01DX005 (ip), vehicle: saline with Tween-80 96 % of control | dose: 25.0 mg/kg/injection, schedule: Q01DX005 (ip), vehicle: saline with Tween-80 96 % of control | [17] 99 % of control and 102 % of control

CC(C)=CC1C(/C(C)=C/CCCCC(=O)O)C1(C)C (stereo not given)
inactive: dose: 100.0 mg/kg/injection, schedule: Q04DX002 (ip), vehicle: saline with Tween-80 101 % of control | dose: 200.0 mg/kg/injection, schedule: Q04DX002 (ip), vehicle: saline with Tween-80 94 % of control | dose: 400.0 mg/kg/injection, schedule: Q04DX002 (ip), vehicle: saline with Tween-80 96 % of control

COc1cc(C(O)C2C(=O)OCC2C2(c3ccc4c(c3)OCO4)SCCCS2)cc(OC)c1OC (stereo not given)
inactive: [11] 107 % of control | dose: 100.0 mg/kg/injection, schedule: Q01DX001 (ip), vehicle: saline with Tween-80 109 % of control | [19] 115 % of control | dose: 200.0 mg/kg/injection, schedule: Q01DX001 (ip), vehicle: saline with Tween-80 104 % of control | [20] 108 % of control

COc1cc2c(cc1OC)C(Cc1ccsc1)NCC2 (stereo not given)
inactive: dose: 50.0 mg/kg/injection, schedule: Q04DX002 (ip), vehicle: Klucel (hydroxypropylcellulose) (HPC) 102 % of control | [18] 100 % of control

C[N+](C)(C)CCO
inactive: [15] 105 % of control | [16] 98 % of control | dose: 50.0 mg/kg/injection, schedule: Q01DX009 (ip), vehicle: saline 96 % of control

O=C(Nc1ccccc1-c1ccccc1)C(Cl)Cl
inactive: [12] 101 % of control | [13] 104 % of control | [14] 87 % of control | dose: 400.0 mg/kg/injection, schedule: Q01DX009 (ip), vehicle: Klucel (hydroxypropylcellulose) (HPC) 100 % of control

O=NN(CCCl)C(=O)OCc1ccccc1
inactive: dose: 3.12 mg/kg/injection, schedule: Q01DX001 (ip), vehicle: saline with Tween-80 101 % of control | dose: 6.25 mg/kg/injection, schedule: Q01DX001 (ip), vehicle: saline with Tween-80 100 % of control and 123 % of control | dose: 12.5 mg/kg/injection, schedule: Q01DX001 (ip), vehicle: saline with Tween-80 108 % of control and 113 % of control | dose: 25.0 mg/kg/injection, schedule: Q01DX001 (ip), vehicle: saline with Tween-80 110 % of control and 123 % of control

C[C@]12CC[C@H]3[C@@H](CCC4=CC(=O)CC[C@@]43C)[C@@H]1CC[C@@H]2OC(=O)Cc1ccc(N(CCCl)CCCl)cc1
inactive: dose: 100.0 mg/kg/injection, schedule: Q04DX003 (ip), vehicle: saline with Tween-80 112 % of control | dose: 264.0 mg/kg/injection, schedule: Q04DX003 (ip), vehicle: saline with Tween-80 109 % of control

CC(=O)OC1(OC(C)=O)C=C2OCOC2=CC1=O
inactive: dose: 8.75 mg/kg/injection, schedule: Q01DX005 (ip), vehicle: Klucel (hydroxypropylcellulose) (HPC) 91 % of control | dose: 17.5 mg/kg/injection, schedule: Q01DX005 (ip), vehicle: Klucel (hydroxypropylcellulose) (HPC) 103 % of control

Cc1ccc(NC(=O)NNC(=O)CNC(=O)Nc2n[nH]c(=S)s2)c(C)c1
inactive: [11] 92 % of control | [19] 86 % of control | [20] 91 % of control

Source: PubChem BioAssay AID330 (DTP/NCI, 2004)
